Data: paper PMC7248098, “Biochemical characterization and inhibition of the alternative oxidase enzyme from the fungal phytopathogen Moniliophthora perniciosa” (Communications Biology, 2020)
Values joined by “and” are separate entries in the source; they are usually repeats but may differ in a detail not shown here. Equal values may be shown once.

What was measured:
M. perniciosa = tested on: M. perniciosa; design: method as in PMID 22443281, PMID 30350447; conditions: cited from earlier work
membrane-bound rMpAOX = membrane-bound rMpAOX (Moniliophthora perniciosa, UniProt A8QJP8); test: Dose-response assay of inhibitors with membrane-bound, GMP-activated rMpAOX (NADH oxidation); type: biochemical
Procedure: E. coli membrane preparation was performed as described with minor modifications. […] The cells were disrupted using two passes at […] through a pre-cooled Constant cell disruption system (Constant Systems Ltd). The lysate was centrifuged for 15 min at 16,000 rcf, and the pelleted unbroken cells and large cell debris were discarded. The supernatant was centrifuged for 90 min at 200,000 rcf to collect the fragmented membranes.
(§1) Respiration rates were recorded before and after the addition of putative AOX activators, such as 5′-ADP, 5′-AMP, 5′-GDP, 5′-GMP, glyoxylate, oxaloacetate, pyruvate or succinate (1 mM each unless stated otherwise). […] Data were acquired with the Multiskan FC Microplate Photometer (ThermoFisher). […] Absorbance readings were taken periodically and a blank reactions (substrate without enzyme) were included in every assay and were used to determine and subtract the autoxidation rate (background). Proteoliposomes were assayed as described for the E. coli membrane fraction except that no KCN was included and 0.5 µL of the prep (~50 ng rMpAOX) were added into the reaction. When tested, inhibitors were preincubated with the enzyme in reaction buffer for 2–5 min before starting the reaction by the addition of substrate. The path length (i.e., the height of the reaction medium inside the well) was calculated based on the reaction volume and the well cross-section area informed by the supplier. GraphPad Prism 7.0 (GraphPad Software Inc.) was used for function fitting.

purified rMpAOX = purified rMpAOX (Moniliophthora perniciosa, UniProt A8QJP8); test: Purified (detergent-solubilised) rMpAOX, Q1H2 oxidation; type: biochemical
Procedure: The E. coli membrane fraction was resuspended with 50 mM Tris-HCl pH 7.5, 20% glycerol, 200 mM MgSO4 and 1% Fos-Choline-12 (FC-12) instead of MOPS buffer. The sample was left under gentle rocking for 1 h at 4 °C, after which it was centrifuged at 200,000 rcf for 30 min. […] T. Elthon, Nebraska, USA. Protein content was estimated through the Bradford method[63] and bovine serum albumin as standard.
as §1

[1] = biological target: rMpAOX incorporated into proteoliposomes (Moniliophthora perniciosa, UniProt A8QJP8); test: rMpAOX incorporated into proteoliposomes with Q10 and NDH-2 (NADH oxidation); type: biochemical
Procedure: Proteoliposomes (PL) were prepared as previously described[44],[45], except that NDH-2 was used instead of complex I and 0.5% DDM was used instead of OG. […] For kinetic studies, PLs were prepared with 50 µg rMpAOX and no NDH-2—in this case, pure NDH-2 was added directly into the enzymatic reaction mixture at a saturating concentration. Briefly, lipids and Q10 stocks in chloroform were mixed in a glass vial and the chloroform dried under a nitrogen stream. The lipids were hydrated and extruded through a 100 nm NanoSizer MINI Liposome Extruder (T&T Scientific) followed by the addition of protein. After treatment with the Bio-Beads SM-2 Resin (Bio-Rad), proteolipososmes were harvested by ultracentrifugation and resuspended in 150 µL of buffer. Enzymatic assays were performed on the same day.
as §1

membrane-bound TAO = tested on: membrane-bound TAO; design: method as in PMID 23180806; conditions: cited from earlier work
solubilised TAO = tested on: solubilised TAO; design: method as in PMID 29107420; conditions: cited from earlier work
[2] = tested on: TAO incorporated into PLs; design: method as in PMID 29133414; conditions: cited from earlier work

Sequence of purified rMpAOX (A8QJP8 entry or part of it): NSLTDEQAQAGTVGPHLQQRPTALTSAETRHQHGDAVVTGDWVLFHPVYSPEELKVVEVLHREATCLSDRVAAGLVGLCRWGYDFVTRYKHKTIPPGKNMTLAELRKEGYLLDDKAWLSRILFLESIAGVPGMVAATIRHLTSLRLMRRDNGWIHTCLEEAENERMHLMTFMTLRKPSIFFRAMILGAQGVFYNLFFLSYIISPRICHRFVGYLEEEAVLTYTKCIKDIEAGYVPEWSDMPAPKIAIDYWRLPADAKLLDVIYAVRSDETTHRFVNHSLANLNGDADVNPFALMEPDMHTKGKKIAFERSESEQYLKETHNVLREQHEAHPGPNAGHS
Sequence of rMpAOX incorporated into proteoliposomes (A8QJP8 entry or part of it): as above
Sequence of membrane-bound rMpAOX (A8QJP8 entry or part of it): as above

CCCOC(=O)c1cc(O)c(O)c(O)c1 [n-propyl gallate]
Concentrations that inhibit M. perniciosa growth (M. perniciosa): millimolar concentrations

CC(C)=CCC/C(C)=C/Cc1c(O)c(Cl)c(C)c(C=O)c1O [CB, colletochlorin B]
Fractional velocity, % (membrane-bound rMpAOX; log[I], M -4.60206 (Fig2b), 25 µM): 2.536% and 2.662% and 8.437% | Fractional velocity, % (membrane-bound rMpAOX; log[I], M -5.60206 (Fig2b), 2.5 µM): 2.977% and 3.203% and 8.094% | Fractional velocity, % (membrane-bound rMpAOX; log[I], M -6.60206 (Fig2b), 0.25 µM): 4.262% and 7.7642% and 10.3237% | Fractional velocity, % (membrane-bound rMpAOX; log[I], M -8.60206 (Fig2b), 0.0025 µM): 76.0268% and 98.1726% and 76.3221% | Fractional velocity, % (membrane-bound rMpAOX; log[I], M -9.60206 (Fig2b), 0.00025 µM): 96.6921% and 90.9449% | activity at 0.00025 µM (membrane-bound rMpAOX; log[I], M -9.60206 (Fig2b), read-out: Fractional velocity, %): 96.2% | Fractional velocity, % (membrane-bound rMpAOX; log[I], M -10.6021 (Fig2b), 25 pM): 95.8052% and 91.68% | activity at 25 pM (membrane-bound rMpAOX; log[I], M -10.6021 (Fig2b), read-out: Fractional velocity, %): 92% | IC50 (membrane-bound rMpAOX; membrane-bound, GMP-activated rMpAOX, read-out: IC50): 14.8 nM | Ki (purified rMpAOX; Morrison equation for tight-binders, read-out: KIapp): 13.9 nM | activity at 2.5 pM (purified rMpAOX; [I], M 2.5e-12, read-out: Dose-response assay with CB, (Fig3d)): 99.5% | activity at 10 pM (purified rMpAOX; [I], M 1e-11, read-out: Dose-response assay with CB, Fig3d): 98% | activity at 25 pM (purified rMpAOX; [I], M 2.5e-11, read-out: Dose-response assay with CB, (Fig3d)): 99% | activity at 0.0001 µM (purified rMpAOX; [I], M 1e-10, read-out: Dose-response assay with CB, Fig3d): 100% | activity at 0.00025 µM (purified rMpAOX; [I], M 2.5e-10, read-out: Dose-response assay with CB, (Fig3d)): 99.7% | activity at 0.001 µM (purified rMpAOX; [I], M 1e-9, read-out: Dose-response assay with CB, Fig3d): 96.8% | activity at 0.0025 µM (purified rMpAOX; [I], M 2.5e-9, read-out: Dose-response assay with CB, (Fig3d)): 94.6% | activity at 0.01 µM (purified rMpAOX; [I], M 1e-8, read-out: Dose-response assay with CB, Fig3d): 79.3% | activity at 0.025 µM (purified rMpAOX; [I], M 2.5e-8, read-out: Dose-response assay with CB, (Fig3d)): 69.2% | activity at 0.1 µM (purified rMpAOX; [I], M 1e-7, read-out: Dose-response assay with CB, Fig3d): 36.9% | activity at 0.25 µM (purified rMpAOX; [I], M 2.5e-7, read-out: Dose-response assay with CB, (Fig3d)): 22.7% | activity at 1 µM (purified rMpAOX; [I], M 1e-6, read-out: Dose-response assay with CB, Fig3d): 8.98% | activity at 2.5 µM (purified rMpAOX; [I], M 2.5e-6, read-out: Dose-response assay with CB, (Fig3d)): 10.4% | activity at 10 µM (purified rMpAOX; [I], M 1e-5, read-out: Dose-response assay with CB, Fig3d): 2.99% | activity at 25 µM (purified rMpAOX; [I], M 2.5e-5, read-out: Dose-response assay with CB, (Fig3d)): 0% | activity at 100 µM (purified rMpAOX; [I], M 0.0001, read-out: Dose-response assay with CB, Fig3d): 3.34% | CB-to-rMpAOX ratio at the IC50 concentration (purified rMpAOX; enzyme 49.1 nM): 1.2 | IC50 (purified rMpAOX; purified rMpAOX, enzyme 49.1 nM): 59.3 nM | Fractional velocity, % ([1]; log[CB], M -4.60206 (Fig4b), 25 µM): 2.151% | activity at 25 µM ([1]; log[CB], M -4.60206 (Fig4b), read-out: Fractional velocity, %): 2.86% | Fractional velocity, % ([1]; log[CB], M -5.60206 (Fig4b), 2.5 µM): 4.07% | activity at 2.5 µM ([1]; log[CB], M -5.60206 (Fig4b), read-out: Fractional velocity, %): 3.2% | Fractional velocity, % ([1]; log[CB], M -6.60206 (Fig4b), 0.25 µM): 11.8798% | activity at 0.25 µM ([1]; log[CB], M -6.60206 (Fig4b), read-out: Fractional velocity, %): 11.1% | Fractional velocity, % ([1]; log[CB], M -7.60206 (Fig4b), 0.025 µM): 47.093% | activity at 0.025 µM ([1]; log[CB], M -7.60206 (Fig4b), read-out: Fractional velocity, %): 46.1% | Fractional velocity, % ([1]; log[CB], M -8.60206 (Fig4b), 0.0025 µM): 86.8217% | activity at 0.0025 µM ([1]; log[CB], M -8.60206 (Fig4b), read-out: Fractional velocity, %): 74.5% | Fractional velocity, % ([1]; log[CB], M -9.60206 (Fig4b), 0.00025 µM): 97.2868% | activity at 0.00025 µM ([1]; log[CB], M -9.60206 (Fig4b), read-out: Fractional velocity, %): 99.3% | Fractional velocity, % ([1]; log[CB], M -10.6021 (Fig4b), 25 pM): 98.4496% | activity at 25 pM ([1]; log[CB], M -10.6021 (Fig4b), read-out: Fractional velocity, %): 98.7% | activity at 2.5 pM ([1]; log[CB], M -11.6021 (Fig4b), read-out: Fractional velocity, %): 100% | IC50 ([1]; proteoliposomes with rMpAOX, Q10 and NDH-2): 19.5 nM | IC50 (membrane-bound TAO): 0.2 nM | CB-to-enzyme ratio at the IC50 concentration (solubilised TAO): 1.3 | CB-to-enzyme ratio at the IC50 concentration [2]: 1.4
